According to US20250312327A1, “COMPOSITION FOR COMBINATION THERAPY, COMPRISING 2,3,5-SUBSTITUTED THIOPHENE COMPOUND” (PHAROS IBIO CO., LTD, priority 2021, published 2025):
Read-outs that look alike come from different tables or passages of the source.

Assays:
Assay type in all cases: cell-based
[1] = tested on: BDCM leukemia cell line; experiment: CellTiter-Glo assay, drug administered alone; conditions: PHI-101 administered alone
[2] = tested on: THP-1 leukemia cell line; experiment: CellTiter-Glo assay, drug administered alone; conditions: Homo sapiens, THP-1, PHI-101 administered alone
[3] = tested on: HL-60 leukemia cell line; experiment: CellTiter-Glo assay, drug administered alone; conditions: Homo sapiens, HL-60, PHI-101 administered alone
[4] = tested on: MV4-11 leukemia cell line; experiment: CellTiter-Glo assay, drug administered alone; conditions: Homo sapiens, PHI-101 administered alone, Table 7
[5] = tested on: MolM13 leukemia cell line; experiment: CellTiter-Glo assay, drug administered alone; conditions: Homo sapiens; PHI-101 administered alone; MolM 13; Table 7; read-out: IC50 PHI-101
Experimental: The first and second tests were performed in triplicate on the above cell lines while reducing the concentration of venetoclax by half each time from 100 μM, and the third test was performed in triplicate on the BDCM cell line while reducing the concentration of venetoclax by half each time from 100 μM, and performed in triplicate on HL-60, MolM13, MolM14, and MV4-11 cell lines while reducing the concentration of venetoclax by half each time from 2.5 μM. The fourth test was performed in triplicate on HL-60, MolM13, MolM14, and MV4-11 cell lines while reducing the concentration by half each time from 2.5 μM.
Specifically, in the first and second tests, a 10-fold diluted solution was prepared by dissolving 50 μL of 10 mM venetoclax in 450 μL of solvent. 250 μL of the solution was serially diluted ½, an 8E-tube was filled with 250 μL of each dilution, and 80 μL of each cell line was dispensed into each well of a 96-well plate. Thereafter, 10 μL of each cell line was dispensed using JANUS and incubated for 72 hours under CO2. Celltiter-Glo assay was performed and then IC50 was calculated.
In the third test, for the BCDM cell line, a 10-fold diluted solution was prepared by dissolving 15 μL of 10 mM venetoclax in 135 μL of solvent. 100 μL of the solution was serially diluted ½, an 8E-tube was filled with 100 μL of each dilution, and the cell line was dispensed into a 96-well plate. Thereafter, 25 μL of the cell line was dispensed using JANUS and incubated for 72 hours under CO2. Celltiter-Glo assay was performed and then IC50 was calculated. Meanwhile, for the HL-60, MolM13, MolM14, and MV4-11 cell lines, a 10-fold diluted solution was prepared by dissolving […] of solvent. 200 μL of the solution was serially diluted ½, an 8E-tube was filled with 200 μL of each dilution, and each of the cell lines was dispensed into a 96-well plate. Thereafter, 60 μL of each cell line was dispensed using JANUS and incubated for 72 hours under CO2. Celltiter-Glo assay was performed and then IC50 was calculated.
The fourth test was performed on HL-60, MolM13, MolM14, and MV4-11 cell lines in the same manner as the third test.
(§1) The first and second tests were performed in triplicate on the above cell lines while reducing the concentration of 5-azacytidine by half each time from 100 μM. Specifically, in the first and second tests, a 10-fold diluted solution was prepared by dissolving 15 μL of 20 mM 5-azacytidine in 285 μL of solvent. 250 μL of the solution was serially diluted ½, an 8E-tube was filled with 250 μL of each dilution, and 80 μL of each cell line (3,000 cells) was dispensed into each well of a 96-well plate. Thereafter, 10 μL of each cell line was dispensed using JANUS and incubated for 72 hours under CO2. Celltiter-Glo assay was performed and then IC50 was calculated.
as §1, with “cytarabine” for “5-azacytidine”, “50,000” for “100”, “10” for “15”, “50” for “20”, “490” for “285”

[6] = tested on: U937 leukemia cell line; experiment: CellTiter-Glo assay, co-administration of PHI-101 and anticancer drug; conditions: PHI-101 at the minimum concentration, 5-azacytidine co-administration test
Experimental: (§2) Specifically, in the first and second tests, a 10-fold diluted solution was prepared by dissolving […] of solvent. 500 μL of the solution was serially diluted ½, an 8E-tube was filled with 500 μL of each dilution, and 90 μL of each cell line was dispensed into each well of a 96-well plate. Thereafter, 10 μL of each cell line was dispensed using JANUS and pretreated for 30 minutes under CO2. […] Next, the cells were incubated for 72 hours under CO2, Celltiter-Glo assay was performed and then IC50 was calculated.
(§3) In the third and fourth tests, a 10-fold diluted solution was prepared by dissolving 5 μL of 50 mM PHI-101 in 495 μL of solvent. 250 μL of the solution was serially diluted ½, an 8E-tube was filled with 250 μL of each dilution, and 60 μL of each cell line was dispensed into each well of a 96-well plate. Thereafter, 10 μL of each cell line was dispensed using JANUS and pretreated for 30 minutes under CO2. […] Next, the cells were incubated for 72 hours under CO2, Celltiter-Glo assay was performed and then IC50 was calculated.
(§4) Specifically, in the first and second tests, for BDCM, HL-60, THP-1, and U937 cell lines, a 10-fold diluted solution was prepared by dissolving 5 μL of 50 mM PHI-101 in 495 μL of solvent. […] Next, the cells were incubated for 72 hours under CO2, Celltiter-Glo assay was performed and then IC50 was calculated.

[7] = tested on: HL-60 leukemia cell line; experiment: as above; conditions: PHI-101 at the minimum concentration, 5-azacytidine co-administration test
Experimental: as §2, §3, §4

[8] = tested on: MolM14 leukemia cell line; experiment: CellTiter-Glo assay, drug administered alone; conditions: Homo sapiens, MOLM-14, PHI-101 administered alone
[9] = tested on: U937 leukemia cell line; experiment: CellTiter-Glo assay, drug administered alone; conditions: Homo sapiens, U-937, PHI-101 administered alone
[10] = Table 7, read-out: IC50 PHI-101
[11] = Table 10, read-out: IC50 PHI-101
[12] = Table 13, read-out: IC50 PHI-101

## NC(=O)Nc1cc(C#Cc2cccc(F)c2)sc1C(=O)N[C@H]1CCCNC1 [PHI-101, (S)-5-((3-fluorophenyl)ethynyl)-N-(piperidin-3-yl)-3-ureido-thiophene-2-carboxamide]
[1]; [10]
  IC50: 950 nM
[1]; [11]
  IC50: 230 nM
[1]; [12]
  IC50: 230 nM
[2]; [10]
  IC50: 1530 nM
[2]; [11]
  IC50: 735 nM
[2]; [12]
  IC50: 735 nM
[3]; [10]
  IC50: 2080 nM
[3]; [11]
  IC50: 2200 nM
[3]; [12]
  IC50: 1100 nM
[4]
  IC50: 1 nM
[5]
  IC50: 1 nM
[6]
  inhibitory activity: ≤ 50%
[7]
  inhibitory activity: ≤ 50%
[8]; Table 7
  IC50: 8 nM
[8]; Table 10
  IC50: 8 nM
[8]; Table 13
  IC50: 4 nM
[9]; [10]
  IC50: 1250 nM
[9]; [11]
  IC50: 3400 nM
[9]; [12]
  IC50: 850 nM
